Reference: patent publication US20100311674A1, “PHARMACEUTICAL COMPOSITIONS WITH A MECHANISM OF MULTI-TARGET RECEPTOR RETROACTION FOR TREATING DEPRESSION” (Yu-Fen Chi, priority 2007, published 2010)

How the values were obtained:
Assay type in all cases: in vivo
[1] = system: unpredictable long-term stimulus model; assay: Rat swimming by compulsion, unpredictable long-term stimulus model (Experiment 8); details: 2 mg/kg/d into the stomach, 24 days; 1 h after dose; last 5 minutes
Description: Unpredictable long-term stimulus model: Health Wistar male rats, secondary, 240˜270 g of body weight, are purchased from Beijing Vital River Experimental Animal Technology Ltd. Co. (The quality certificate number: SOCK (JING) 2002-2003).
(§1) The above pharmaceuticals are prepared with 0.5% of sodium carboxymethylcellulose (CMC-Na) for feeding into the stomach. Benzylpenicillin sodium for injection is the product of North China Pharmaceutical Huasheng Co. Ltd. (Lot: S0511204), and norepinephrine (NE) and 5-hydrotryptamine (5-HT) standards are the products of Sigma Co. Other reagents are all marketed.
8.4.1 Group division and administration of drug: The rats are grouped randomly into 6 groups. 1. False therapy group; 2. model group (control); 3. high dose of Embodiment 4 (60 mg/kg/d); 4. middle dose of Embodiment 4 (30 mg/kg/d); 5. low dose of Embodiment 4 (15 mg/kg/d); and 6. […]
8.5.3 Rat swimming by compulsion: This experiment is proceeded for two days after the last administration of drug. […] After 1 hour of administration of drug, the rat is placed in the tank, and the time of non-movement of the rat for the last 5 minutes is recorded.
8.6 Statistic calculation: The experimental data are represented as […], and the experimental result is calculated as ANOVA by SPSS 11.5 statistic software.

[2] = system: rat olfactory bulb lesion model; assay: Open field activity experiment of the rat olfactory bulb lesion model (Experiment 7); details: 2 mg/kg/d into the stomach, 24 days; within 3 minutes
Description: Olfactory bulb lesion model: Health Wistar male rats, secondary, 330±20 g of body weight, are purchased from Beijing Vital River Experimental Animal Technology Ltd. Co. (The quality certificate number: SCXK (JING) 2002-2003).
as §1
7.4.1 Group division and administration of drug: The rats are grouped randomly into 6 groups. 1. […]
7.5.1 Open field activity experiment: The open field activity box (1 m×1 m×0.4 m) is constructed by the light blue plywood and the aluminum alloy frame. […] The rat is placed in the center of the central grids, and the rat's cross-grid number (the number of crossing into the neighboring gird more than 3 claws) and rat's standing number (two forelimbs leaving the ground for more than 1 cm) are calculated/observed within 3 minutes.
7.6 Statistic calculation: The experimental data are represented as X+SD, and the experimental result is calculated as ANOVA by SPSS 11.5 statistic software.

ICR mice = assay: Mouse swimming by compulsion experiment (Experiment 10)
Description: 10.1 Experiment pharmaceuticals: The pharmaceutical of Embodiment 5 is provided by Beijing Wonner Biotech. […] Above-mentioned pharmaceuticals are prepared with physiological saline for feeding into the stomach. 10.2 Experimental animals: ICR mice, male, 20.0±1 g of body weight, secondary, are provided by the Experimental Animal Science Department of Capital Medical University, Beijing. The quality certificate number of mice is SCXK (JING) 2006-2008. 10.4 Experimental method: The mouse group and the administration of drugs are like the mouse tail-hanging experiment. The experiment is proceeded in tested mouse in each group after 1 hour of the administration of drug. The mouse is trained to swim for 15 minutes before the experiment and on the eighth day. After 24 hours, the experiment is performed. The mouse is placed in the glass tank having 10 cm of the water depth, 14 cm of the diameter and at 25° C. of the water temperature. The accumulative time of non-movement of the mouse in the water for the last 5 minutes is recorded. 10.5 Statistic calculation: The experimental data are represented as X+SD, and the experimental result is calculated as one-way ANOVA by SPSS 11.5 statistic software.

Fc1ccc([C@@H]2CCNC[C@H]2COc2ccc3c(c2)OCO3)cc1 [Paroxetine]
Time of non-movement [1]: 31.38 ± 19.59 s | Horizontal movement (cross-grid number) [2]: 55.36 ± 25.96 | Vertical movement (standing number) [2]: 14.36 ± 5.55 | Time of non-movement (ICR mice; 3 mg/kg/d into the stomach, 1 h after dose, water 25° C., last 5 minutes): 57.80 ± 38.07 s | Effect on accumulative time of non-movement, swimming by compulsion (in words) (ICR mice; high, middle and low doses of Embodiment 5, Paroxetine): obviously decrease the accumulative time of non-movement
